Laboratory results taken from US5698552A, “Hetrazepinoid amides” (Boehringer Ingelheim KG, priority 1990, dated 1997).

Tests used:
[1] = tested on: PAF-induced platelet aggregation; experiment: Inhibition of PAF-induced platelet aggregation in vitro (Born and Cross method); assay type: cell-based, healthy male and female donors (human); settings: PAF 5 ×10^-8 M; human platelet-rich plasma (TRP); n=4; read-out: PAF-induced platelet aggregation (inhibition, IC50 = concentration at 50% aggregation inhibition)
Method: 200 ml samples of blood were taken from a non-obstructed vein, with the aid of a plastic syringe containing 3.8% sodium citrate solution, from healthy male and female donors aged from 18 to 35 years who had not taken any medicaments (aspirin or other non-steroid anti-inflammatories) for several days before the blood withdrawal. The ratio of sodium citrate solution:blood was 1:9. The citrated blood was centrifuged in plastic tubes at 150 ×g (=1,200 rpm) at room temperature for 20 min (Heraeus Christ bench centrifuge 124).
The platelet aggregation was measured in vitro by the method of Born and Cross (1963), an aggregation inducer (PAF) being added to the TRP, while stirring constantly. For the measurement, 0.8 ml TRP and 0.2 ml modified Tyrode's solution (see below) were introduced into 1 ml plastic cells, each of which contained a small metal pin (stirrer, 1,000 rpm). The test substance was added in a volume of 10 μl for 2 to 3 min before inducing the aggregation. Either DMSO and water or a dilute HCl solution was used as the solvent. The control batches contained the corresponding volume of these solvents. After recording the initial absorption (2-3 min), aggregation was induced. PAF (5 ×10^-8 M; Bachem Feinchemikalien) was introduced into the cell in a volume of 10 μl.
The modified Tyrode's solution had the following composition: 136.9 mM NaCl; 2.68 mM KCl; 0.5 mM MgCl2; 1.8 mM CaCl2; 0.42 mM NaH2 PO4; 5.55 mM glucose and 11.9 mM NaHCO3.
To evaluate substance effects, the maximum of the first aggregation wave was used. The maximum absorption induced by the aggregation inducer (=maximum aggregation=100%) was simultaneously run in a parallel batch (in the 2nd channel of the aggregometer) to each test batch and used as the 100% value. The aggregation value achieved under the action of the test substance was quoted as % of the control value (batch).
Concentration/effect curves with a random sample size of in each case n=4 were plotted with the aid of this method and IC50 values (concentration at 50% aggregation inhibition) were calculated.

[2] = molecular target: T1, PAF receptor (Homo sapiens, UniProt P25105); experiment: 3H-PAF-receptor bonding on human thrombocytes (platelets); assay type: binding; settings: method as in European Patent Application 368 175
T1 construct: determined using human thrombocytes; endogenous in cells; host or cells: human thrombocytes (platelets)
T1 sequence (P25105 whole entry): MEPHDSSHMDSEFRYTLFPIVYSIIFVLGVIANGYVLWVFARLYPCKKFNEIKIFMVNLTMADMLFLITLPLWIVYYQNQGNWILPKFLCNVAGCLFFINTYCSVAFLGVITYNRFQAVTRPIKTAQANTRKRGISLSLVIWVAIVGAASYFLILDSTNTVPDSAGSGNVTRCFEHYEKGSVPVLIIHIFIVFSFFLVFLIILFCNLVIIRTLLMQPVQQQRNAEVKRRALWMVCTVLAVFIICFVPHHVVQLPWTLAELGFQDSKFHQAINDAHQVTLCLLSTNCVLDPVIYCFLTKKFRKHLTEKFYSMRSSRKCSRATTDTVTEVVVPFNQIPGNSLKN
Method: Then, at 20° C., 18.3 g (0.12 mol) of hydroxybenzotriazole (HOBT), 23.7 g (0.109 mol) of N-4-trifluoromethylbenzyl-N-n-propylamine and 25.6 g (0.125 mol) of dicyclohexyl-carbodiimide (DCCI) and a further 250 ml of dimethylformamide (DMF) were added. The mixture was left to react for 24 hours. It was then cooled to 5° C. and filtered. 500 ml of water were added to the filtrate and it was extracted with ethyl acetate. The combined organic phases were washed with water and saturated sodium hydrogen carbonate solution, dried with magnesium sulphate and filtered over kieselguhr/char-coal. After working up in the usual way, 50 g of colourless crystals of the title compound are obtained by crystallisation from ethanol/diisopropylether (1:1). […] (The method used is described for example in European Patent Application 368 175).

Structure (SMILES) | IC50 [1] | Ki [2]
CCCN(Cc1ccccc1)C(=O)[C@@H]1Cc2sc3c(c2C1)C(c1ccccc1Cl)=NCc1nnc(C)n1-3 [Example 2, S(-)-3-(Benzylpropylaminocarbonyl)-5-(2-chlorophenyl)-10-methyl-7H-cyclopenta[4,5]thieno[3,2-f][1,2,4]-triazolo-[4,3-a][1,4]diazepine] | 49 nM | 
CCCN(Cc1ccc(C(F)(F)F)cc1)C(=O)[C@@H]1Cc2sc3c(c2C1)C(c1ccccc1Cl)=NCc1nnc(C)n1-3 [Example 18] |  | 1.8 nM
CCN(Cc1ccccc1)C(=O)[C@@H]1Cc2sc3c(c2C1)C(c1ccccc1Cl)=NCc1nnc(C)n1-3 [Example 6, S(-)-3-(Benzylethylaminocarbonyl)-5-(2-chlorophenyl)-10-methyl-7H-cyclopenta[4,5]thieno[3,2-f][1,2,4]triazolo-[4,3-a][1,4]diazepine] | 23 nM | 
CCCCN(Cc1ccccc1)C(=O)[C@@H]1Cc2sc3c(c2C1)C(c1ccccc1Cl)=NCc1nnc(C)n1-3 [Example 7, S(-)-3-(Benzylbutylaminocarbonyl)-5-(2-chlorophenyl)-10-methyl-7H-cyclopenta[4,5]thieno-[3,2-f][1,2,4]triazolo-[4,3-a][1,4]diazepine] | 84 nM | 
Cc1nnc2n1-c1sc3c(c1C(c1ccccc1Cl)=NC2)C[C@H](C(=O)N(Cc1ccccc1)Cc1ccccc1)C3 [Example 10, S(--)-3-(Dibenzylaminocarbonyl)-5-(2-chlorophenyl)-10-methyl-7H-cyclopenta[4,5]thieno-[3,2-f][1,2,4]-triazolo-[4,3-a][1,4]diazepine] | 37 nM | 
